Measured values published in patent US11919887B2, “Substituted tetrahydrofurans as modulators of sodium channels” (Vertex Pharmaceuticals Incorporated, priority 2019, dated 2024).
Like-named read-outs stand apart in the source and are kept apart here.

Target: human Nav 1.8 (Homo sapiens, UniProt Q9Y5Y9)
Test: E-VIPR assay detecting and measuring Nav inhibition (HEK cells expressing truncated human Nav 1.8)
Format: cell-based
Settings: read-out: IC50
How it was run: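 HEK cells expressing truncated human Nav1.8, transduced with KIR2.1 BacMam, were loaded with CC2-DMPE/DiSBAC6(3) FRET dyes and tested under electrical stimulation (E-VIPR). Compounds were run as 11-point 3-fold dilutions, top 300 nM final, 0.625% DMSO, with or without 25% human serum.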

[1] = in the Presence of Human Serum in the E-VIPR Assay
[2] = in the Absence of Human Serum in the E-VIPR Assay

human Nav 1.8, sequence (Q9Y5Y9 whole entry, looked up, the tested form may be a part): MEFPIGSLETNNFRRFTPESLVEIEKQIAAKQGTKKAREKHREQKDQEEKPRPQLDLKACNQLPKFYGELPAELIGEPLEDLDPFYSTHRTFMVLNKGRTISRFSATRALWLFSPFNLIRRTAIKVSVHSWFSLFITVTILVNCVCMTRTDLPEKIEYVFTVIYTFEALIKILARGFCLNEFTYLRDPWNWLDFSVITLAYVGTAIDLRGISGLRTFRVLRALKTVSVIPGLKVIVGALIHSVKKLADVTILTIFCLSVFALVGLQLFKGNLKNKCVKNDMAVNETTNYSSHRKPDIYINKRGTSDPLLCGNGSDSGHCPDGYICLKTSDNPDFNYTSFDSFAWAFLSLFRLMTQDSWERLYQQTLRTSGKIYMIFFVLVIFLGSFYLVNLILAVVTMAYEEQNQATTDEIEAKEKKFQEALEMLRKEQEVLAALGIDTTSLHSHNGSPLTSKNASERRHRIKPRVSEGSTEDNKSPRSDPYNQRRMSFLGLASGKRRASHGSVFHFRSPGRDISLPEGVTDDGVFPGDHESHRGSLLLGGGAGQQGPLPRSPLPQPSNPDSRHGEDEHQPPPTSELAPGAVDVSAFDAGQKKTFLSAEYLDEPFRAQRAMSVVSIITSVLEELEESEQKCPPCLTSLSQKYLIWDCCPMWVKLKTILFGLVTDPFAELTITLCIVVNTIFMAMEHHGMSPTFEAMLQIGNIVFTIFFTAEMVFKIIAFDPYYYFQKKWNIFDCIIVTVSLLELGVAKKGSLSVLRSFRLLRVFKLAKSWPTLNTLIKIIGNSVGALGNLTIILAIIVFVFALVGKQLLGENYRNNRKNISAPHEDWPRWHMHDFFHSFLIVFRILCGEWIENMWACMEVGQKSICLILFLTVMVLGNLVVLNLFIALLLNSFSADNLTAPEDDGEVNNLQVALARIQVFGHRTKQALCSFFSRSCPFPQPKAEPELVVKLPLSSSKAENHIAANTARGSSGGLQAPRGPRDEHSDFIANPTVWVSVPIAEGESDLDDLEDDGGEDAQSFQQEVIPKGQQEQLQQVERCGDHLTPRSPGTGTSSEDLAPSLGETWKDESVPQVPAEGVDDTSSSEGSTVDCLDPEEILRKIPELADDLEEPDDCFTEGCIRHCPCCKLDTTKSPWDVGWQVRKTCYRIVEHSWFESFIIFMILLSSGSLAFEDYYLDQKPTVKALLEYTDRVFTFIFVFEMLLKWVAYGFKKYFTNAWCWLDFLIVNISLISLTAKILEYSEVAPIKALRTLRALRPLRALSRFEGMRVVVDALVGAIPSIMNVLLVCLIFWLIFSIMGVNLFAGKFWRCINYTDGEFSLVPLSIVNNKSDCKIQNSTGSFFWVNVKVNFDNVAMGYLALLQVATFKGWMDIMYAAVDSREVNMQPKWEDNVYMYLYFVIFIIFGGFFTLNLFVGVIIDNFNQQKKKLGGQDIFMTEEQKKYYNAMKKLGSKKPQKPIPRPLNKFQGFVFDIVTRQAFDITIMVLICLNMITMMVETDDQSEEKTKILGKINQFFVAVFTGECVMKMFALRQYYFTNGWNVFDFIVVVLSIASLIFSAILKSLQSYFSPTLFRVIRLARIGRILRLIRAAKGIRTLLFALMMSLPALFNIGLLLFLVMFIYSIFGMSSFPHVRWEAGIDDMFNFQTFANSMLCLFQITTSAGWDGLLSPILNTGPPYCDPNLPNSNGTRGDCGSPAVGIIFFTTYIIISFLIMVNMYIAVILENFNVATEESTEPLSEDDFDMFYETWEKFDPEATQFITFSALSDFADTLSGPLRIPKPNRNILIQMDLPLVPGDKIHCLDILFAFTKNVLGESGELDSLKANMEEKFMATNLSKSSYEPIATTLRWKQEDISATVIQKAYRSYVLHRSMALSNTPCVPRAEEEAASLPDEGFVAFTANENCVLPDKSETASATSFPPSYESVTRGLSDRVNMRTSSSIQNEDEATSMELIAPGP

SMILES | IC50 [1] [nM] | IC50 [2] [nM]
CC[C@]1(C(F)(F)F)C[C@@H](c2ccc(F)c(F)c2OC)[C@H](C(=O)Nc2ccnc(C(N)=O)c2)O1 (stereo in doubt) [Compound 64, rel-(2R,3S,5R)-4-[[3-(3,4-difluoro-2-methoxy-phenyl)-5-ethyl-5-(trifluoromethyl)tetrahydrofuran-2-carbonyl]amino]pyridine-2-carboxamide] | 10 to 100 | 
COc1cc(F)ccc1[C@H]1C[C@@](C)(C(F)(F)F)O[C@@H]1C(=O)Nc1ccnc(C(N)=O)c1 (stereo in doubt) [Compound 67, rel-(2S,3R,5S)-4-[[3-(4-fluoro-2-methoxy-phenyl)-5-methyl-5-(trifluoromethyl)tetrahydrofuran-2-carbonyl]amino]pyridine-2-carboxamide] | > 1000 | 
COc1cc(F)ccc1[C@@H]1C[C@](C)(C(F)(F)F)O[C@H]1C(=O)Nc1ccnc(C(N)=O)c1 (stereo in doubt) [Compound 68, rel-(2R,3S,5R)-4-[[3-(4-fluoro-2-methoxy-phenyl)-5-methyl-5-(trifluoromethyl)tetrahydrofuran-2-carbonyl]amino]pyridine-2-carboxamide] | 10 to 100 | 
COc1c([C@@H]2[C@@H](C)[C@@](C)(C(F)F)O[C@H]2C(=O)Nc2ccnc(C(N)=O)c2)ccc(F)c1F (stereo in doubt) [Compound 96, rel-(2R,3S,4R,5S)-4-[[3-(3,4-difluoro-2-methoxy-phenyl)-5-(difluoromethyl)-4,5-dimethyl-tetrahydrofuran-2-carbonyl]amino]pyridine-2-carboxamide] | > 1000 | 
COc1c([C@@H]2[C@@H](C(=O)Nc3ccnc(C(N)=O)c3)O[C@@](C)(C(F)F)[C@H]2C)ccc(F)c1F (stereo in doubt) [Compound 97, rel-(2S,3R,4S,5R)-4-[[3-(3,4-difluoro-2-methoxy-phenyl)-5-(difluoromethyl)-4,5-dimethyl-tetrahydrofuran-2-carbonyl]amino]pyridine-2-carboxamide] | > 1000 | 
COc1c([C@@H]2[C@@H](C(=O)Nc3ccnc(C(N)=O)c3)O[C@](C)(C(F)F)[C@@H]2C)ccc(F)c1F (stereo in doubt) [Compound 98, rel-(2S,3R,4R,5S)-4-[[3-(3,4-difluoro-2-methoxy-phenyl)-5-(difluoromethyl)-4,5-dimethyl-tetrahydrofuran-2-carbonyl]amino]pyridine-2-carboxamide] | > 1000 | 
COc1c([C@H]2[C@H](C(=O)Nc3ccnc(C(N)=O)c3)O[C@@](C)(C(F)F)[C@H]2C)ccc(F)c1F (stereo in doubt) [Compound 99, rel-(2R,3S,4S,5R)-4-[[3-(3,4-difluoro-2-methoxy-phenyl)-5-(difluoromethyl)-4,5-dimethyl-tetrahydrofuran-2-carbonyl]amino]pyridine-2-carboxamide] | > 1000 | 
COc1c([C@H]2[C@@H](C)[C@@H](C)O[C@@H]2C(=O)Nc2ccnc(C(N)=O)c2)ccc(F)c1F (stereo in doubt) [Compound 107, rel-(2S,3R,4R,5R)-4-[[3-(3,4-difluoro-2-methoxy-phenyl)-4,5-dimethyl-tetrahydrofuran-2-carbonyl]amino]pyridine-2-carboxamide] | > 1000 | 
COc1c([C@@H]2[C@H](C)[C@H](C)O[C@H]2C(=O)Nc2ccnc(C(N)=O)c2)ccc(F)c1F (stereo in doubt) [Compound 108, rel-(2R,3S,4S,5S)-4-[[3-(3,4-difluoro-2-methoxy-phenyl)-4,5-dimethyl-tetrahydrofuran-2-carbonyl]amino]pyridine-2-carboxamide] | 100 to 1000 | 
COc1c([C@H]2C[C@@H](C(F)(F)F)O[C@@H]2C(=O)Nc2ccnc(C(N)=O)c2)ccc(F)c1F (stereo in doubt) [Compound 109, rel-(2S,3R,5S)-4-[[3-(3,4-difluoro-2-methoxy-phenyl)-5-(trifluoromethyl)tetrahydrofuran-2-carbonyl]amino]pyridine-2-carboxamide] | > 1000 | 
COc1c([C@@H]2C[C@H](C(F)(F)F)O[C@H]2C(=O)Nc2ccnc(C(N)=O)c2)ccc(F)c1F (stereo in doubt) [Compound 110, rel-(2R,3S,5R)-4-[[3-(3,4-difluoro-2-methoxy-phenyl)-5-(trifluoromethyl)tetrahydrofuran-2-carbonyl]amino]pyridine-2-carboxamide] | 100 to 1000 | 
Cc1c([C@@H]2[C@@H](C(=O)Nc3ccnc(C(N)=O)c3)O[C@](C)(C(F)(F)F)[C@@H]2C)ccc(F)c1F (stereo in doubt) [Compound 131, rel-(2S,3R,4R,5S)-4-[[3-(3,4-difluoro-2-methyl-phenyl)-4,5-dimethyl-5-(trifluoromethyl)tetrahydrofuran-2-carbonyl]amino]pyridine-2-carboxamide] |  | > 1000
Cc1c([C@H]2[C@H](C(=O)Nc3ccnc(C(N)=O)c3)O[C@@](C)(C(F)(F)F)[C@H]2C)ccc(F)c1F (stereo in doubt) [Compound 132, rel-(2R,3S,4S,5R)-4-[[3-(3,4-difluoro-2-methyl-phenyl)-4,5-dimethyl-5-(trifluoromethyl)tetrahydrofuran-2-carbonyl]amino]pyridine-2-carboxamide] |  | < 10
Cc1c([C@@H]2[C@@H](C)[C@@](C)(C(F)(F)F)O[C@H]2C(=O)Nc2ccnc(C(N)=O)c2)ccc(F)c1F (stereo in doubt) [Compound 133, rel-(2R,3S,4R,5S)-4-[[3-(3,4-difluoro-2-methyl-phenyl)-4,5-dimethyl-5-(trifluoromethyl)tetrahydrofuran-2-carbonyl]amino]pyridine-2-carboxamide] |  | 10 to 100
Cc1c([C@@H]2[C@@H](C(=O)Nc3ccnc(C(N)=O)c3)O[C@@](C)(C(F)(F)F)[C@H]2C)ccc(F)c1F (stereo in doubt) [Compound 134, rel-(2S,3R,4S,5R)-4-[[3-(3,4-difluoro-2-methyl-phenyl)-4,5-dimethyl-5-(trifluoromethyl)tetrahydrofuran-2-carbonyl]amino]pyridine-2-carboxamide] |  | 100 to 1000
COc1nc(C(F)(F)F)ccc1[C@@H]1[C@@H](C(=O)Nc2ccnc(C(N)=O)c2)O[C@](C)(C(F)(F)F)[C@@H]1C (stereo in doubt) [Compound 137, rel-(2S,3R,4R,5S)-4-[[3-[2-methoxy-6-(trifluoromethyl)-3-pyridyl]-4,5-dimethyl-5-(trifluoromethyl)tetrahydrofuran-2-carbonyl]amino]pyridine-2-carboxamide] | > 1000 | 
COc1nc(C(F)(F)F)ccc1[C@H]1[C@H](C(=O)Nc2ccnc(C(N)=O)c2)O[C@@](C)(C(F)(F)F)[C@H]1C (stereo in doubt) [Compound 138, rel-(2R,3S,4S,5R)-4-[[3-[2-methoxy-6-(trifluoromethyl)-3-pyridyl]-4,5-dimethyl-5-(trifluoromethyl)tetrahydrofuran-2-carbonyl]amino]pyridine-2-carboxamide] | 10 to 100 | 
COc1nc(C(F)F)ccc1[C@H]1[C@H](C(=O)Nc2ccnc(C(N)=O)c2)O[C@@](C)(C(F)(F)F)[C@H]1C (stereo in doubt) [Compound 140, rel-(2R,3S,4S,5R)-4-[[3-[6-(difluoromethyl)-2-methoxy-3-pyridyl]-4,5-dimethyl-5-(trifluoromethyl)tetrahydrofuran-2-carbonyl]amino]pyridine-2-carboxamide] |  | 10 to 100
